# pIC50: −log10 of the molar value. Counter-ions that a name gives are not always drawn.
# Key:
# [1] = test system: xenograph (human) tumor derived from MO-91 cell line; test: Xenograft tumor growth in mice, MO-91; assay type: in vivo; details: MO-91 xenograft, 60 or 200 mg/kg daily oral
# Source text: (§1) The three different cancer cell lines, the CUTO-3F cell line, the KM12 cell line, and the MO-91 cell line, each express a different Trk gene fusion. […] Following implantation of one of these three different xenograph (human) tumors in mice, the change in the volume of each tumor was monitored.
# [2] = Dynamic vapor sorption (DVS-1 system); assay type: physicochemical
# Protocol: For the DVS measurement a sample of crystalline form (I-HS) was cycled through changing humidity conditions to determine its hygroscopicity. The sample was analyzed using a Surface Measurement System DVS-1 Dynamic Vapor Sorption System. […] Data was collected in 1 minute intervals. Nitrogen was used as the carrier gas. […] After completion of the sorption cycle, the sample was dried using the same procedure, but all the way down to 0% RH and finally taken back to the starting point of 20% RH. The weight change during the sorption/desorption cycles were plotted, allowing for the hygroscopic nature of the sample to be determined.
# TRKA/B/C = test: Target inhibition judged from unbound drug levels in Phase 1 study; assay type: in vivo, human; details: all dose levels
# [3] = test system: xenograph (human) tumor derived from KM12 cell line; test: Xenograft tumor growth in mice, KM12; assay type: in vivo; details: 60 or 200 mg/kg daily oral
# Source text: as §1
# [4] = test system: MO-91 acute myeloid leukemia cells harboring ETV6-NTRK3 fusion; test: Cell proliferation assay (Cell Titer 96 MTS), MO-91; assay type: cell-based; details: Homo sapiens, MO-91, 72 h, read-out: IC50, cell proliferation
# Protocol: (§3) The KM12 cell line is a colorectal cancer cell line harboring the TPM3-NTRK1 fusion (Vaishnavi et al., Nature Med. 19:1469-1472, 2013). The MO-91 cell line is derived from an acute myeloid leukemia patient harboring the ETV6-NTRK3 fusion (Taipale et al., Nature Biotech. 31:630-637, 2013).
# (§4) All proliferation assays were performed in media supplemented with 5% FBS as previously described using Cell Titer 96 MTS (Promega) (Bouhana et al., EORTC-NCI-AACR 26th Symposium on Molecular Targets and Cancer Therapeutics, Barcelona, Spain 2014). Cells were seeded 500-2000 cells/well and treated for 72 hours at the drug concentrations described on each graph. Each assay was performed in triplicate in at least 3 independent biological replicates. Data were plotted and IC50 values calculated using GraphPad software.
# TRKA-SHC1 complexes = test: TRK-SHC1 proximity ligation assay in CUTO-3 cells; assay type: cell-based, human; details: 100 nM, 2 hours, vs DMSO
# Protocol: Cells were seeded onto glass coverslips (in a 48 well plate) or chamber slides at 25-75 k cells/well. Cells were treated with the indicated doses and times then fixed for 15 minutes by shaking at room temperature in 4% paraformaldehyde. The cells were rinsed twice in PBS, and then the Duolink® in situ PLA® kit from SigmaAldrich in mouse/rabbit (Red) was used according to the manufacturer's protocol (catalog # DUO92101). The antibody concentrations were optimized using immunofluorescence prior to PLA experiments. The FFPE tissue PLAs from mice or patients were prepared as described in histology. Additionally, samples were treated with 300 mM glycine for 15 minutes prior to the blocking step, otherwise the assay was performed according to the manufacturer's protocol. The cells were mounted using Prolong® gold anti-fade reagent (with DAPI) and cured overnight prior to imaging. […] The following antibodies were used: TRK (C17F1) and ALK (D5F3) from Cell Signaling, SHC1 from Novus, and Grb2 (610111) from BD.
# [5] = Phase 1 dose escalation study, pharmacokinetics; assay type: in vivo, human; details: oral, patients
# [6] = Accelerated stability, open vials in LDPE bag, 40° C./75% RH, five weeks; assay type: physicochemical
# Protocol: Upon removal from the chamber, the samples were physically characterized by appearance, KF, TGA, DSC, XRD and PLM. The samples were also analyzed by HPLC for chromatographic purity, chiral integrity and potency. Where applicable, the data presented in the stability portion also includes the original T=0 data for comparison purposes. The data can be seen in Tables 25-29 and FIGS. 40-44.
# [7] = test system: undifferentiated sarcoma with LMNA-NTRK1 fusion; test: Phase 1 trial, patient with undifferentiated sarcoma (case report); assay type: in vivo, human; details: one patient
# Source text: The patient started cycle 1 day 1 three days later. The patient was seen weekly for pharmacokinetic and safety analysis.
# [8] = test system: TEL-TRKC oncoprotein, pAKT, and pERK1/2; test: Immunoblot of phosphorylation in MO-91 cells; assay type: cell-based, human; details: low doses, 2 hours
# Source text: (§2) Briefly, cells were lysed in RIPA buffer with Halt Protease and Phosphatase Inhibitor Cocktail (Thermo Scientific) and diluted in loading buffer (LI-COR Biosciences). The membranes were scanned and analyzed using the Odyssey Imaging System and software (LI-COR). The following antibodies were used from Cell Signaling: pTRK Y490 (rabbit polyclonal, #9141), pERK1/2 XP T202/Y204 (#9101), total ERK1/2, pAKT S473 (rabbit mAb, #4060), and total AKT mouse clone D3A7 (#2920). TRK (C-14) rabbit polyclonal antibody was purchased from Santa Cruz Biotechnology. GAPDH (MAB374) and pTYR (4G10) are from Millipore.
# [9] = test system: HCC78 cells expressing SLC34A2-ROS1 fusion protein; details: HCC78 cell line
# Protocol: as §4
# [10] = test system: xenograph (human) tumor derived from CUTO-3F cell line; test: Xenograft tumor growth in mice, CUTO-3F; assay type: in vivo; details: CUTO-3F xenograft, 60 or 200 mg/kg daily oral
# Source text: as §1
# [11] = Phase 1 dose escalation study, safety; details: for dose limiting toxicity: one patient
# Protocol: In patients with measurable disease, efficacy is assessed per RECIST 1.1 criteria.
# Response is measured by RECIST Criteria, version 1.1. Serum is collected for pharmacokinetic analysis on Cycle 1 Day 1 and Day 8. Safety information is collected on all patients and the definition of dose-limiting toxicity applies to adverse events regardless of relationship to investigational product.
# [12] = Dynamic vapor sorption / humidity exposure (IGAsorp, 25° C.); assay type: physicochemical; details: for hygroscopicity: DVS, hydrogen sulfate
# Protocol: • 1. The hygroscopicity was studied at 25° C. using an IGAsorp analyzer. • 2. About 15 mg of sample was placed in a tared mesh sample holder at an initial ambient room humidity setting of ˜35%. • 3. A total wet/dry nitrogen flow rate of 250 cc/min is used throughout the study. • 4. […] The maximum time allowed at any one humidity set point was 120 min. The sample was maintained under dry N2 after the cycle was completed. Percent weight gain was calculated based on the dry weight basis.
# [13] = Stability on aluminum slide at 40° Celsius/75% RH; assay type: physicochemical; details: I-HS 10 days; HCl after 1 hour; HBr after 2 weeks; mesylate overnight
# [14] = test system: MPRIP-TRKA oncoprotein and ERK1/2; test: Immunoblot of phosphorylation in CUTO-3F cells; assay type: cell-based, human; details: low doses, 2 hours
# Source text: as §2
# [15] = test system: TPM3-TRKA, pAKT, and pERK1/2; test: Immunoblot of phosphorylation in KM12 cells; assay type: cell-based, human; details: low doses, 2 hours
# Source text: as §2
# [16] = test system: KM12 colorectal cancer cells harboring TPM3-NTRK1 fusion; test: Cell proliferation assay (Cell Titer 96 MTS), KM12; assay type: cell-based; details: Homo sapiens, KM12, 72 h, read-out: IC50, cell proliferation
# Protocol: as §3, §4
# [17] = test system: CUTO-3F lung adenocarcinoma cells harboring MPRIP-NTRK1 fusion; test: Cell proliferation assay (Cell Titer 96 MTS), CUTO-3F; assay type: cell-based; details: Homo sapiens, 72 h, read-out: IC50, cell proliferation
# Protocol: as §3, §4
# [18] = test system: solid tumors with NTRK gene fusions; test: Phase 1 study, tumor response (RECIST 1.1) in patients with NTRK fusions; assay type: in vivo, human
# Protocol: Three of the 23 patients harbored NTRK-fusions and were treated at either 100 or 150 mg BID.
# [19] = 23 patients, 50 mg QD-150 mg BID
structure (smiles),measurement,setting,value
"O=C(Nc1cnn2ccc(N3CCC[C@@H]3c3cc(F)ccc3F)nc12)N1CC[C@H](O)C1 [crystalline form (I-HS), (S)—N-(5-((R)-2-(2,5-difluorophenyl)-pyrrolidin-1-yl)-pyrazolo[1,5-a]pyrimidin-3-yl)-3-hydroxypyrrolidine-1-carboxamide hydrogen sulfate]",tumor growth (change in volume),[1],"effectively halt the growth, or decrease the rate of growth"
same,change in form during DVS (post-DVS XRPD),[2],no change
same,hygroscopicity,"[2]; DVS isotherm, FIG. 5",non-hygroscopic
same,DVS (outcome),[2]; HCl: at 50-60% RH,RH No change
same,DVS weight gain,[2]; at 80% RH,~1% gain at 80%
same,DVS weight gain,[2]; at 95% RH,A 2% gain at 95%
same,increase in mass during sorption cycle,[2]; between 0% and 90% RH,about 1.7%
same,inhibition of TRKA/B/C at peak concentrations,TRKA/B/C,approximately 98%
same,tumor growth (change in volume),[3],"effectively halt the growth, or decrease the rate of growth"
same,pIC50,[4],> 8.00
same,TRKA-SHC1 complexes (PLA signal),TRKA-SHC1 complexes,disruption of TRKA-SHC1 complexes
same,exposure versus dose,[5],increased in approximate proportion with dose
same,time to maximum plasma concentrations following dosing,[5],30 to 60 min
same,Appearance,"[6]; 40° C./75% RH, 5 wks",Orange Powder
same,Assay (HPLC),"[6]; 40° C./75% RH, 5 wks",79.6%
same,Chiral Potency (HPLC),"[6]; 40° C./75% RH, 5 wks",99.6%
same,KF (water content),"[6]; 40° C./75% RH, 5 wks",0.21 w/w %
same,"Peak Area Percent, RRT 0.793","[6]; 40° C./75% RH, 5 wks",0.07
same,"Peak Area Percent, RRT 0.863","[6]; 40° C./75% RH, 5 wks",0.00
same,"Peak Area Percent, RRT 0.981","[6]; 40° C./75% RH, 5 wks",0.00
same,"Peak Area Percent, RRT 1.000","[6]; 40° C./75% RH, 5 wks",99.93
same,"Peak Area Percent, RRT 1.535","[6]; 40° C./75% RH, 5 wks",0.00
same,Total Impurities (HPLC),"[6]; 40° C./75% RH, 5 wks",0.07%
same,change of API chemical purity,"[6]; 40° C./75% RH, five weeks",did not change significantly
same,Appearance,[6]; time point 0 wks,Orange Powder
same,Assay (HPLC),[6]; time point 0 wks,79.4%
same,Chiral Potency (HPLC),[6]; time point 0 wks,99.6%
same,KF (water content),[6]; time point 0 wks,0.28 w/w %
same,"Peak Area Percent, RRT 0.793",[6]; time point 0 wks,0.07
same,"Peak Area Percent, RRT 0.863",[6]; time point 0 wks,0.00
same,"Peak Area Percent, RRT 0.981",[6]; time point 0 wks,0.00
same,"Peak Area Percent, RRT 1.000",[6]; time point 0 wks,99.86
same,"Peak Area Percent, RRT 1.535",[6]; time point 0 wks,0.07
same,Total Impurities (HPLC),[6]; time point 0 wks,0.14%
same,response by RECIST 1.1,"[7]; 100 mg twice daily, CT before cycle 2 and cycle 3",partial response
same,oxygen saturation on room air,"[7]; on treatment, baseline 90% with 5 L supplemental oxygen",97%
same,CA125 tumor marker levels,[7]; over cycle 1,normalized
same,"phosphorylation of TEL-TRKC, pAKT, pERK1/2",[8],inhibition in the phosphorylation
same,inhibition of cellular proliferation,[9],did not inhibit
same,tumor growth (change in volume),[10],"effectively halt the growth, or decrease the rate of growth"
same,"Grade 1 and 2 anemia, frequency",[11]; 23 patients,22%
same,"Grade 1 and 2 dizziness, frequency",[11]; 23 patients,26%
same,"Grade 1 and 2 fatigue, frequency",[11]; 23 patients,35%
same,MTD,[11]; [19],has not been reached
same,tolerability,[11]; [19],well tolerated
same,dose limiting toxicity,[11]; Dose Level 100 mg BID,"delirium, grade 3 unrelated"
same,dose limiting toxicity,[11]; Dose Level 150 mg BID,"elevated AST, grade 3"
same,adverse events attributed to drug,"[11]; sarcoma patient, after four months of dosing",did not have any adverse events
same,drug-related adverse events,"[11]; sarcoma patient, first 4-week period",No drug-related adverse events were noted
same,hygroscopicity,[12],non-hygroscopic
same,hygroscopicity,[12]; listed as Crystalline form (I-HS),not hygroscopic
same,mass gained in DVS,[12]; at 80% RH,1%
same,Stability at 40° Celsius/75% RH (aluminum slide),[13],No form change
same,phosphorylation of MPRIP-TRKA and ERK1/2,[14],inhibition of phosphorylation
same,"phosphorylation of TPM3-TRKA, pAKT, pERK1/2",[15],inhibition of the phorphorylation
same,pIC50,[16],> 8.00
same,pIC50,[17],> 7.00
same,response (RECIST 1.1) in three NTRK-fusion patients,[18]; 100 or 150 mg BID,partial response
same,tumor decrease,"[18]; c-kit-negative GIST, ETV6-NTRK3 fusion, 2 cycles+",30%
same,tumor decrease,"[18]; mammary analogue secretory carcinoma, ETV6-NTRK3 fusion, 2 cycles+",64%
same,tumor decrease,"[18]; undifferentiated sarcoma, LMNA-NTRK1 fusion, 7 cycles+",59%
